Assay results reported in the kinase profiling compilation of Christmann-Franck et al. (2016).

How the values were obtained:
Experiment in all cases: KINOMEscan competition binding
Conditions in all cases: compound 10.0 µM
AKT1 (human) = AKT1 (human) (UniProt P31749)
ANKK1 (human) = ANKK1 (human) (UniProt Q8NFD2)
CSF1R (human) = CSF1R (human) (UniProt P07333)
EIF2AK2 (human) = EIF2AK2 (human) (UniProt P19525)
EPHA7 (human) = EPHA7 (human) (UniProt Q15375)
EPHA8 (human) = EPHA8 (human) (UniProt P29322)
FLT1 (human) = FLT1 (human) (UniProt P17948)
HIPK4 (human) = HIPK4 (human) (UniProt Q8NE63)
HUNK (human) = HUNK (human) (UniProt P57058)
MAP3K15 (human) = MAP3K15 (human) (UniProt Q6ZN16)
MAPK15 (human) = MAPK15 (human) (UniProt Q8TD08)
MARK4 (human) = MARK4 (human) (UniProt Q96L34)
MATK (human) = MATK (human) (UniProt P42679)
MINK1 (human) = MINK1 (human) (UniProt Q8N4C8)
MKNK1 (human) = MKNK1 (human) (UniProt Q9BUB5)
NEK5 (human) = NEK5 (human) (UniProt Q6P3R8)
NTRK3 (human) = NTRK3 (human) (UniProt Q16288)
PIM1 (human) = PIM1 (human) (UniProt P11309)
PKMYT1 (human) = PKMYT1 (human) (UniProt Q99640)
PLK3 (human) = PLK3 (human) (UniProt Q9H4B4)
PLK3 (human), sequence (Q9H4B4 whole entry, looked up): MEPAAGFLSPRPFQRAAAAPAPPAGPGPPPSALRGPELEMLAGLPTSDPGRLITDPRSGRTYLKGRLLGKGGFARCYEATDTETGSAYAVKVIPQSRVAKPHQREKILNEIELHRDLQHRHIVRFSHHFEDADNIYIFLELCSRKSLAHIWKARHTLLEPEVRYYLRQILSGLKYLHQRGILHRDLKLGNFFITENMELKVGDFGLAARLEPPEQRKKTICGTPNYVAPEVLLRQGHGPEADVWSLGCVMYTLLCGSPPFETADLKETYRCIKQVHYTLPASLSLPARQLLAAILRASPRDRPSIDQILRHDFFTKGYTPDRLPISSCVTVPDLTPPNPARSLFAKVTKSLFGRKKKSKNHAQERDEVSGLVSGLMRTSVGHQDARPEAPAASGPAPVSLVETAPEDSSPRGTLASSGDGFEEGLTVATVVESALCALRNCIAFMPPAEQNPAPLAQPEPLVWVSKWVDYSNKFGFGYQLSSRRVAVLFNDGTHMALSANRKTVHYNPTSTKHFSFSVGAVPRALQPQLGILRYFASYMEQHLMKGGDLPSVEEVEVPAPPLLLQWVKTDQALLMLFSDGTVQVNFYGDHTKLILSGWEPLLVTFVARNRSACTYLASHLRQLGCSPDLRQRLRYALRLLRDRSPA

PTK2 (human) = PTK2 (human) (UniProt Q05397)
PTK2B (human) = PTK2B (human) (UniProt Q14289)
[1] = system: RET (human), P07949 [V804L]
RIPK2 (human) = RIPK2 (human) (UniProt O43353)
RIPK2 (human), sequence (O43353 whole entry, looked up): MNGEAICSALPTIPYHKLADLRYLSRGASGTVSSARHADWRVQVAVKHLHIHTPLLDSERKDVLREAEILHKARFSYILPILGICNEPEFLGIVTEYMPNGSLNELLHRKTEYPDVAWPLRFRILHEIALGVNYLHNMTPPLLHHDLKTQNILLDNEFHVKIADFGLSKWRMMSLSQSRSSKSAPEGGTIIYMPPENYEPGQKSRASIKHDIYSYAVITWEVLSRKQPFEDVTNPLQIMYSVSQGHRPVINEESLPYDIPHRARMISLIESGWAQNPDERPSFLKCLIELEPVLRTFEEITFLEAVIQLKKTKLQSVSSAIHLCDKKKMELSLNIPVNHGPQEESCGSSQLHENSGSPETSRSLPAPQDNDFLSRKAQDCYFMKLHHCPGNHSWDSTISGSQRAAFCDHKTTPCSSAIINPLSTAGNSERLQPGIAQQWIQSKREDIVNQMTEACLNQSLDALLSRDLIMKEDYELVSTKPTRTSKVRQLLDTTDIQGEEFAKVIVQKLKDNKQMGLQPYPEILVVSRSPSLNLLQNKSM

ROCK2 (human) = ROCK2 (human) (UniProt O75116)
ROCK2 (human), sequence (O75116 whole entry, looked up): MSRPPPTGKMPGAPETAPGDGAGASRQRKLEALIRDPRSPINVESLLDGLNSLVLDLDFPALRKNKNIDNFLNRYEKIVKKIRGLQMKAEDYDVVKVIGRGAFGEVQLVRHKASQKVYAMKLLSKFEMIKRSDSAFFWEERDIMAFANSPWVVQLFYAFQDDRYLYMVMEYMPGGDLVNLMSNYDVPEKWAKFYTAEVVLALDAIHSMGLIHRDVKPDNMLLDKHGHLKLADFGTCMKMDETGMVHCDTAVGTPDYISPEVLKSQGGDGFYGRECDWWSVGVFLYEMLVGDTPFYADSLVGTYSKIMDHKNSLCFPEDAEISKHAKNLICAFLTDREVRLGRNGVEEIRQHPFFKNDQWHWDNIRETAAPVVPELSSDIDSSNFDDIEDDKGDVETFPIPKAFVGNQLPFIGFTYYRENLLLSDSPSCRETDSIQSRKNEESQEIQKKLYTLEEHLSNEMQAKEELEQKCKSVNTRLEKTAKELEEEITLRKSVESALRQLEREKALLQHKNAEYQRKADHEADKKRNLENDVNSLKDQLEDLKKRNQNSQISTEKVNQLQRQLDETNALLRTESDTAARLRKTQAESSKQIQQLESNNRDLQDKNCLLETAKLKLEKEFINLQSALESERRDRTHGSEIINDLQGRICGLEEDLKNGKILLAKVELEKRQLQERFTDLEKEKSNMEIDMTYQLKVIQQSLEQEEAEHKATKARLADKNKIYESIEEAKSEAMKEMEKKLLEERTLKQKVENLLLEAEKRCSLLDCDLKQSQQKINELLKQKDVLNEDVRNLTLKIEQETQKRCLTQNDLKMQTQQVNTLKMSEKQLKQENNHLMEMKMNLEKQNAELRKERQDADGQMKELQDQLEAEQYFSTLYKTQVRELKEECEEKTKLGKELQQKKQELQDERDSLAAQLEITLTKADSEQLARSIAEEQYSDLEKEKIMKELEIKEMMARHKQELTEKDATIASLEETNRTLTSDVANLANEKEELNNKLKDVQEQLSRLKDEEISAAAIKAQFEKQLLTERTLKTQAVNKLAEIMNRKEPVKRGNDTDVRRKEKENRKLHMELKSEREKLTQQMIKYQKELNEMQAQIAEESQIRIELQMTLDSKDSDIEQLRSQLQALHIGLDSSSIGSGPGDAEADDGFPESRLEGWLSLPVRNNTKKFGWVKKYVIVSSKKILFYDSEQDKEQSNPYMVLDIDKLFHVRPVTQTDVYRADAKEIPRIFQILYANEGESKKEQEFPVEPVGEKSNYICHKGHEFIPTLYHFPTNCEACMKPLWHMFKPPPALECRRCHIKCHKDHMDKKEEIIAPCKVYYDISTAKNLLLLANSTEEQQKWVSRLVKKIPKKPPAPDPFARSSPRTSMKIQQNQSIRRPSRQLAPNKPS

RPS6KA1 KD1 (human) = RPS6KA1 KD1 (human) (UniProt Q15418)
RPS6KA3 KD1 (human) = RPS6KA3 KD1 (human) (UniProt P51812)
RPS6KA5 KD1 (human) = RPS6KA5 KD1 (human) (UniProt O75582)
RPS6KA5 KD2 (human) = RPS6KA5 KD2 (human) (UniProt O75582)
SIK1 (human) = SIK1 (human) (UniProt P57059)
SRPK1 (human) = SRPK1 (human) (UniProt Q96SB4)
STK24 (human) = STK24 (human) (UniProt Q9Y6E0)
STK36 (human) = STK36 (human) (UniProt Q9NRP7)
STK4 (human) = STK4 (human) (UniProt Q13043)
TAOK3 (human) = TAOK3 (human) (UniProt Q9H2K8)
WEE1 (human) = WEE1 (human) (UniProt P30291)
AAK1 (human) = AAK1 (human) (UniProt Q2M2I8)
CHEK1 (human) = CHEK1 (human) (UniProt O14757)
CHEK1 (human), sequence (O14757 whole entry, looked up): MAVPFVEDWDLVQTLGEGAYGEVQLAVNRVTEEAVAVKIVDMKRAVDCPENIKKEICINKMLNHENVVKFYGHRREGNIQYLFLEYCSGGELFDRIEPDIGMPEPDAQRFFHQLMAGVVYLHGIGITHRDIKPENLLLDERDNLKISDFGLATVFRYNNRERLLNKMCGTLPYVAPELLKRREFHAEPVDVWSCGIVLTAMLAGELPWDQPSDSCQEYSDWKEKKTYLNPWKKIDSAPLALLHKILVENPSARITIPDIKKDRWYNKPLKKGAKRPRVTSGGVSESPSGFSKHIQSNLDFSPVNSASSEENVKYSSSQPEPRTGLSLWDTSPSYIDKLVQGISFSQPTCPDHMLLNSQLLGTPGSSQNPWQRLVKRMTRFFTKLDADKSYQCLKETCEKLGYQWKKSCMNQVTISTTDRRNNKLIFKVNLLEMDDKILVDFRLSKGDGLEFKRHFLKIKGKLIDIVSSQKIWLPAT

FYN (human) = FYN (human) (UniProt P06241)
NEK1 (human) = NEK1 (human) (UniProt Q96PY6)

EIF2AK2 (human), sequence (P19525 whole entry, looked up): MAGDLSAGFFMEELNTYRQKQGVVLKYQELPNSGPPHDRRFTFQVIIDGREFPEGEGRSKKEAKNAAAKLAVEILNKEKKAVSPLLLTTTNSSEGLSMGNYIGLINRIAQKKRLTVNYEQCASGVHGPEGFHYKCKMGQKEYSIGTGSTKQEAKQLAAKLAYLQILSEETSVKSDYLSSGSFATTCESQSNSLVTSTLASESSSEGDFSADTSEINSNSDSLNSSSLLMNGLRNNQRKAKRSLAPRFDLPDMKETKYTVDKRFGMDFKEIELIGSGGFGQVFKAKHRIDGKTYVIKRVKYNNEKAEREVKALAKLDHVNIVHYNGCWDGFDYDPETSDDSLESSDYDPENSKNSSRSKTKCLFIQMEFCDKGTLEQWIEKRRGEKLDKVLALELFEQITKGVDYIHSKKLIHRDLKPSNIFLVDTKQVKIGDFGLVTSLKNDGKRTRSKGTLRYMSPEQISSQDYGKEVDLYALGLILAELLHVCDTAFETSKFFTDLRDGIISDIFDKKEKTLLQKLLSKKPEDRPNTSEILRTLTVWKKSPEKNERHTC
ANKK1 (human), sequence (Q8NFD2 whole entry, looked up): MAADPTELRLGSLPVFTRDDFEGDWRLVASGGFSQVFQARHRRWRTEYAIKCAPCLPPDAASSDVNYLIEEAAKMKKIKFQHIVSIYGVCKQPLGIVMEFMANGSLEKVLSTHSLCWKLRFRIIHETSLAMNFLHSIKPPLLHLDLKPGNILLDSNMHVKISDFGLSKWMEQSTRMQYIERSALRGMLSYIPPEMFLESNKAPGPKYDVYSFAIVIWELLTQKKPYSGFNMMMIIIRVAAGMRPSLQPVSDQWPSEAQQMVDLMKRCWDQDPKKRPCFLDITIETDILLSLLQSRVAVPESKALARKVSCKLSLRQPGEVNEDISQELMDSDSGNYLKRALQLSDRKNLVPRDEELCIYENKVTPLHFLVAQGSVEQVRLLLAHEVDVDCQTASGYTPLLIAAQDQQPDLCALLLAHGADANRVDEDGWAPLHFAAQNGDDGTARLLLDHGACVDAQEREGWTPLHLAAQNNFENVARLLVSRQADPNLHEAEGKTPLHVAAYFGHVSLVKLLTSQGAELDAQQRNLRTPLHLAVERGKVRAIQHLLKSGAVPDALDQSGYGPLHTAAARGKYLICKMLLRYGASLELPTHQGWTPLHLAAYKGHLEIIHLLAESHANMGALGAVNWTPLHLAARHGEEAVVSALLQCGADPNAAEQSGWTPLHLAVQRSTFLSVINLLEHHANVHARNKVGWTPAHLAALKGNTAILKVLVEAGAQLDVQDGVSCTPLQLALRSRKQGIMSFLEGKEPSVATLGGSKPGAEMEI
AKT1 (human), sequence (P31749 whole entry, looked up): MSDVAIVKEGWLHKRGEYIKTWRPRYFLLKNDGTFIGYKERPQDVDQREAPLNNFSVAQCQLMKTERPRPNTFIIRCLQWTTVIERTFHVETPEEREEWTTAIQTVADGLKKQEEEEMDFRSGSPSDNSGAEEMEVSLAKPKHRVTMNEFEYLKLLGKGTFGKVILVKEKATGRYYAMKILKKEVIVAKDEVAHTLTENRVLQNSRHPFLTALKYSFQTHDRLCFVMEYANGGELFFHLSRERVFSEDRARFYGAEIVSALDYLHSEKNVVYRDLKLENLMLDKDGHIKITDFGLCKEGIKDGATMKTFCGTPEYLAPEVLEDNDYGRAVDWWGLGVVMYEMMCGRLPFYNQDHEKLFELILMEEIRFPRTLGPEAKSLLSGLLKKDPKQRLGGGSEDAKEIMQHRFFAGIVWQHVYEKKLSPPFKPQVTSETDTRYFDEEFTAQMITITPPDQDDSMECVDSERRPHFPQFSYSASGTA

| Compound | kinase still bound, per cent of control (AKT1 (human)) [%] | kinase still bound, per cent of control (ANKK1 (human)) [%] | kinase still bound, per cent of control (CSF1R (human)) [%] | kinase still bound, per cent of control (EIF2AK2 (human)) [%] | kinase still bound, per cent of control (EPHA8 (human)) [%] | kinase still bound, per cent of control (FLT1 (human)) [%] | kinase still bound, per cent of control (HIPK4 (human)) [%] | kinase still bound, per cent of control (HUNK (human)) [%] | kinase still bound, per cent of control (MAP3K15 (human)) [%] | kinase still bound, per cent of control (MAPK15 (human)) [%] | kinase still bound, per cent of control (MARK4 (human)) [%] | kinase still bound, per cent of control (MATK (human)) [%] | kinase still bound, per cent of control (MINK1 (human)) [%] | kinase still bound, per cent of control (NEK5 (human)) [%] | kinase still bound, per cent of control (NTRK3 (human)) [%] | kinase still bound, per cent of control (PKMYT1 (human)) [%] | kinase still bound, per cent of control (PLK3 (human)) [%] | kinase still bound, per cent of control (PTK2 (human)) [%] | kinase still bound, per cent of control [1] [%] | kinase still bound, per cent of control (ROCK2 (human)) [%] | further results |
| --- | --- | --- | --- | --- | --- | --- | --- | --- | --- | --- | --- | --- | --- | --- | --- | --- | --- | --- | --- | --- | --- |
| CCN(CCO)CCCOc1ccc2c(Nc3cc(CC(=O)Nc4cccc(F)c4)[nH]n3)ncnc2c1 | 96 | 11 | 5 | 100 | 90 | 1 | 4.5 | 94 | 100 | 100 | 100 | 71 | 25 | 100 | 56 | 84 | 89 | 64 | 2 | 66 | kinase still bound, per cent of control (EPHA7 (human)): 74%; kinase still bound, per cent of control (MKNK1 (human)): 68%; kinase still bound, per cent of control (PIM1 (human)): 100%; kinase still bound, per cent of control (PTK2B (human)): 100%; kinase still bound, per cent of control (RIPK2 (human)): 17%; kinase still bound, per cent of control (RPS6KA1 KD1 (human)): 83%; kinase still bound, per cent of control (RPS6KA3 KD1 (human)): 80%; kinase still bound, per cent of control (RPS6KA5 KD1 (human)): 100%; kinase still bound, per cent of control (RPS6KA5 KD2 (human)): 100%; kinase still bound, per cent of control (SIK1 (human)): 88%; kinase still bound, per cent of control (SRPK1 (human)): 100%; kinase still bound, per cent of control (STK24 (human)): 43%; kinase still bound, per cent of control (STK36 (human)): 37%; kinase still bound, per cent of control (STK4 (human)): 40%; kinase still bound, per cent of control (TAOK3 (human)): 100%; kinase still bound, per cent of control (WEE1 (human)): 100% |
| CC(=O)c1c(C)c2cnc(Nc3ccc(N4CCNCC4)cn3)nc2n(C2CCCC2)c1=O | 92 | 79 | 50 | 30 | 93 | 100 | 6 | 77 | 11 | 9.4 | 63 | 46 | 7.6 | 27 | 23 | 77 | 19 | 61 | 65 | 36 | kinase still bound, per cent of control (AAK1 (human)): 11%; kinase still bound, per cent of control (CHEK1 (human)): 20%; kinase still bound, per cent of control (FYN (human)): 100%; kinase still bound, per cent of control (NEK1 (human)): 61%; kinase still bound, per cent of control (PTK2B (human)): 31%; kinase still bound, per cent of control (RPS6KA1 KD1 (human)): 12%; kinase still bound, per cent of control (RPS6KA3 KD1 (human)): 28%; kinase still bound, per cent of control (RPS6KA5 KD2 (human)): 15%; kinase still bound, per cent of control (SIK1 (human)): 90%; kinase still bound, per cent of control (STK24 (human)): 16%; kinase still bound, per cent of control (STK36 (human)): 78%; kinase still bound, per cent of control (STK4 (human)): 74%; kinase still bound, per cent of control (TAOK3 (human)): 8.1%; kinase still bound, per cent of control (WEE1 (human)): 36% |
| COc1cc2c(Nc3ccc(NC(=O)c4ccccc4)cc3)ncnc2cc1OCCCN1CCOCC1 | 100 | 17 | 16 | 100 | 83 | 56 | 4.9 | 81 | 100 | 100 | 100 | 100 | 33 | 100 | 98 | 89 | 99 | 62 | 9.6 | 34 | kinase still bound, per cent of control (AAK1 (human)): 94%; kinase still bound, per cent of control (CHEK1 (human)): 100%; kinase still bound, per cent of control (EPHA7 (human)): 84%; kinase still bound, per cent of control (FYN (human)): 55%; kinase still bound, per cent of control (MKNK1 (human)): 100%; kinase still bound, per cent of control (NEK1 (human)): 81%; kinase still bound, per cent of control (PIM1 (human)): 100%; kinase still bound, per cent of control (PTK2B (human)): 98%; kinase still bound, per cent of control (RIPK2 (human)): 2.8%; kinase still bound, per cent of control (RPS6KA1 KD1 (human)): 72%; kinase still bound, per cent of control (RPS6KA5 KD1 (human)): 100%; kinase still bound, per cent of control (RPS6KA5 KD2 (human)): 100%; kinase still bound, per cent of control (SIK1 (human)): 82%; kinase still bound, per cent of control (SRPK1 (human)): 100%; kinase still bound, per cent of control (STK24 (human)): 46%; kinase still bound, per cent of control (STK36 (human)): 98%; kinase still bound, per cent of control (STK4 (human)): 78%; kinase still bound, per cent of control (TAOK3 (human)): 95%; kinase still bound, per cent of control (WEE1 (human)): 100% |
| CCc1nc(-c2cccc(C)c2)c(-c2ccnc(NC(=O)c3ccccc3)c2)s1 | 100 | 83 | 76 | 94 | 89 | 31 | 97 | 15 | 100 | 100 | 100 | 100 | 8.4 | 100 | 96 | 64 | 98 | 96 | 99 | 100 | kinase still bound, per cent of control (AAK1 (human)): 96%; kinase still bound, per cent of control (CHEK1 (human)): 77%; kinase still bound, per cent of control (EPHA7 (human)): 92%; kinase still bound, per cent of control (FYN (human)): 45%; kinase still bound, per cent of control (MKNK1 (human)): 100%; kinase still bound, per cent of control (NEK1 (human)): 90%; kinase still bound, per cent of control (PIM1 (human)): 87%; kinase still bound, per cent of control (RIPK2 (human)): 1.2%; kinase still bound, per cent of control (RPS6KA1 KD1 (human)): 89%; kinase still bound, per cent of control (RPS6KA3 KD1 (human)): 93%; kinase still bound, per cent of control (RPS6KA5 KD1 (human)): 100%; kinase still bound, per cent of control (RPS6KA5 KD2 (human)): 100%; kinase still bound, per cent of control (SIK1 (human)): 100%; kinase still bound, per cent of control (SRPK1 (human)): 100%; kinase still bound, per cent of control (STK24 (human)): 69%; kinase still bound, per cent of control (STK36 (human)): 4.8%; kinase still bound, per cent of control (STK4 (human)): 74%; kinase still bound, per cent of control (TAOK3 (human)): 86%; kinase still bound, per cent of control (WEE1 (human)): 100% |
